Test results from US7811352B2, “Fertilizer compositions and methods of using” (priority 2005, dated 2010).

Assays:
[1] = test system: Bermuda grass; assay: Turfgrass quality and color ratings, Bermuda grass fairway (Example 10); assay type: in vivo; conditions: scale 1-10
From the text: (§1) In this Example, the effect of a fertilizer comprising lysine on warm season turfgrass growth was examined. The effects of lysine (HCl) and LIQUID LYSINE on a common type of golf course fairway quality turfgrass (Bermuda grass) were compared with those of urea and Milorganite.
(§2) Fifteen fertilizer treatments comprising three concentrations of each fertilizer composition (Milorganite (N—P—K, 6-2-0), urea (N—P—K, 46-0-0), LIQUID LYSINE (N—P—K, 10-2-1), and both granular and aqueous lysine (HCl) (N—P—K, 15-2-1)) were prepared and applied to 4 replications of Bermuda grass. The aqueous lysine (HCl) was dissolved in water prior to application. Each fertilizer treatment was applied in concentrations of 0.5 lb N/1000 ft^2/month, 1.0 lb N/1000 ft^2/month and 3.0 lb N/1000 ft^2/month. The urea, LIQUID LYSINE and aqueous lysine (HCl) were applied as foliar liquids, while Milorganite and granular lysine (HCl) were applied as granular fertilizers Plot size was 1 m×2 m set up as a randomized complete block. Plots were mowed at 0.5 inches before fertilizer application. Irrigation (0.15 inch) was applied following application. Plots were rated for turfgrass quality and color (scale of 1-10 where 10=dark green turf, 1=dead/brown turf, and 6=minimally acceptable turf) and phytotoxicity (scale of 0-5, where 5=worst, and 2=minimally objectionable) throughout the study period. Quality, color, and phytotoxicity were measured on 2 days before application (day −2) and day 2, day 5, day 15 and day 21 after application. All data was subject to statistical analysis and significant means were determined. Average turfgrass quality ratings for the treatments are presented in Table 9 and the quality results for application rates of 1.0 lb N/1000 ft^2/month are graphically presented in FIG. 4.

[2] = test system: Bermuda grass; assay: Phytotoxicity rating, Bermuda grass fairway (Example 10); assay type: in vivo; conditions: scale 0-5, 5=worst
From the text: as §1, §2

[3] = Monthly Rate 0.5 lbs N/1000 ft^2, Day 2
[4] = Monthly Rate 0.5 lbs N/1000 ft^2, Day 2, (HCl)
[5] = Monthly Rate 0.5 lbs N/1000 ft^2, Day 5, (HCl)
[6] = Monthly Rate 0.5 lbs N/1000 ft^2, Day 15, (HCl)
[7] = Monthly Rate 0.5 lbs N/1000 ft^2, Day 21, (HCl)
[8] = Monthly Rate 0.5 lbs N/1000 ft^2, Day −2 (before application)
[9] = Monthly Rate 0.5 lbs N/1000 ft^2, Day −2 (before application), (HCl)
[10] = Monthly Rate 1.0 lbs N/1000 ft^2, Day 2, (HCl)
[11] = Monthly Rate 1.0 lbs N/1000 ft^2, Day 5, (HCl)
[12] = Monthly Rate 1.0 lbs N/1000 ft^2, Day 15
[13] = Monthly Rate 1.0 lbs N/1000 ft^2, Day 15, (HCl)
[14] = Monthly Rate 1.0 lbs N/1000 ft^2, Day 21, (HCl)
[15] = Monthly Rate 1.0 lbs N/1000 ft^2, Day −2 (before application), (HCl)
[16] = Monthly Rate 3.0 lbs N/1000 ft^2, Day 2
[17] = Monthly Rate 3.0 lbs N/1000 ft^2, Day 5
[18] = Monthly Rate 3.0 lbs N/1000 ft^2, Day 5, (HCl)
[19] = Monthly Rate 3.0 lbs N/1000 ft^2, Day 15, (HCl)
[20] = Monthly Rate 3.0 lbs N/1000 ft^2, Day 21, (HCl)
[21] = Monthly Rate 3.0 lbs N/1000 ft^2, Day −2 (before application), (HCl)
[22] = Monthly Rate 0.5 lbs N/1000 ft^2, Day 5
[23] = Monthly Rate 0.5 lbs N/1000 ft^2, Day 15
[24] = Monthly Rate 0.5 lbs N/1000 ft^2, Day 21
[25] = Monthly Rate 1.0 lbs N/1000 ft^2, Day 2
[26] = Monthly Rate 1.0 lbs N/1000 ft^2, Day 5
[27] = Monthly Rate 1.0 lbs N/1000 ft^2, Day 21
[28] = Monthly Rate 1.0 lbs N/1000 ft^2, Day −2 (before application)
[29] = Monthly Rate 3.0 lbs N/1000 ft^2, Day 2, (HCl)
[30] = Monthly Rate 3.0 lbs N/1000 ft^2, Day 15
[31] = Monthly Rate 3.0 lbs N/1000 ft^2, Day 21
[32] = Monthly Rate 3.0 lbs N/1000 ft^2, Day −2 (before application)

In the case of `Cl.NCCCC[C@H](N)C(=O)O` [Lys (HCl) 15% N (aq), lysine (HCl)], the “Quality Ratings - Bermuda Grass” value [1, 3] is reported as 7.3b, the “Color Ratings - Bermuda Grass” value [1, 4] is reported as 7.3 and the “Color Ratings - Bermuda Grass” value [1, 5] is reported as 7.8 g·days. The “Quality Ratings - Bermuda Grass” value [1, 5] was 7.1 days, the “Color Ratings - Bermuda Grass” value [1, 6] was 7.6cde and the “Quality Ratings - Bermuda Grass” value [1, 6] was 7.8de. For the same compound, the “Color Ratings - Bermuda Grass” value [1, 7] was 8.0bc, the “Quality Ratings - Bermuda Grass” value [1, 7] was 8.0cde and the “Color Ratings - Bermuda Grass” value [1, 8] was 6.5. The “Quality Ratings - Bermuda Grass” value [1, 9] was 6.3, the “Color Ratings - Bermuda Grass” value [1, 10] was 7.3 and the “Quality Ratings - Bermuda Grass” value [1, 10] was 7.0b. The “Color Ratings - Bermuda Grass” value [1, 11] was 8.1cde, the “Quality Ratings - Bermuda Grass” value [1, 11] was 7.8bcd and the “Color Ratings - Bermuda Grass” value [1, 12] was 7.8cd. The “Quality Ratings - Bermuda Grass” value [1, 13] was 7.9de, the “Color Ratings - Bermuda Grass” value [1, 14] was 8.0bc and the “Quality Ratings - Bermuda Grass” value [1, 14] was 8.0cde. The “Color Ratings - Bermuda Grass” value [1, 15] was 6.5, the “Quality Ratings - Bermuda Grass” value [1, 15] was 6.4 and the “Color Ratings - Bermuda Grass” value [1, 16] was 7.3. The “Quality Ratings - Bermuda Grass” value [1, 16] was 7.4b, the “Color Ratings - Bermuda Grass” value [1, 17] was 9.0a and the “Quality Ratings - Bermuda Grass” value [1, 18] was 8.3ab. The “Color Ratings - Bermuda Grass” value [1, 19] was 8.3ab, the “Quality Ratings - Bermuda Grass” value [1, 19] was 8.8b and the “Color Ratings - Bermuda Grass” value [1, 20] was 8.8a. For the same compound, the “Quality Ratings - Bermuda Grass” value [1, 20] was 8.5ab, the “Color Ratings - Bermuda Grass” value [1, 21] was 6.1 and the “Quality Ratings - Bermuda Grass” value [1, 21] was 6.0. The “Phytotoxicity - Bermuda Grass” value [2, 3] was 0.0b, the “Phytotoxicity - Bermuda Grass” value [2, 22] was 0 and the “Phytotoxicity - Bermuda Grass” value [2, 23] was 0. The “Phytotoxicity - Bermuda Grass” value [2, 24] was 0, the “Phytotoxicity - Bermuda Grass” value [2, 8] was 0 and the “Phytotoxicity - Bermuda Grass” value [2, 25] was 0.0b. The “Phytotoxicity - Bermuda Grass” value [2, 26] was 0, the “Phytotoxicity - Bermuda Grass” value [2, 12] was 0 and the “Phytotoxicity - Bermuda Grass” value [2, 27] was 0. The “Phytotoxicity - Bermuda Grass” value [2, 28] was 0, the “Phytotoxicity - Bermuda Grass” value [2, 29] was 0.3ab and the “Phytotoxicity - Bermuda Grass” value [2, 17] was 0. The “Phytotoxicity - Bermuda Grass” value [2, 30] was 0, the “Phytotoxicity - Bermuda Grass” value [2, 31] was 0 and the “Phytotoxicity - Bermuda Grass” value [2, 32] was 0.
With `Cl.NCCCC[C@H](N)C(=O)O` [Lys (HCl) 15% N (gran), lysine (HCl)] the “Quality Ratings - Bermuda Grass” value [1, 3] was 7.3b, the “Color Ratings - Bermuda Grass” value [1, 4] was 7.5 and the “Color Ratings - Bermuda Grass” value [1, 5] was 8.0def. The “Quality Ratings - Bermuda Grass” value [1, 5] was 7.6bcd, the “Color Ratings - Bermuda Grass” value [1, 6] was 7.1e and the “Quality Ratings - Bermuda Grass” value [1, 6] was 7.4e. The “Color Ratings - Bermuda Grass” value [1, 7] was 8.3b, the “Quality Ratings - Bermuda Grass” value [1, 7] was 7.9def and the “Color Ratings - Bermuda Grass” value [1, 8] was 6.5. For the same compound, the “Quality Ratings - Bermuda Grass” value [1, 9] was 6.5, the “Color Ratings - Bermuda Grass” value [1, 10] was 7.9 and the “Quality Ratings - Bermuda Grass” value [1, 10] was 7.6ab. The “Color Ratings - Bermuda Grass” value [1, 11] was 8.3bcd, the “Quality Ratings - Bermuda Grass” value [1, 11] was 7.9abc and the “Color Ratings - Bermuda Grass” value [1, 12] was 7.8cd. The “Quality Ratings - Bermuda Grass” value [1, 13] was 8.1cd, the “Color Ratings - Bermuda Grass” value [1, 14] was 8.3b and the “Quality Ratings - Bermuda Grass” value [1, 14] was 8.1bcd. The “Color Ratings - Bermuda Grass” value [1, 15] was 6.4, the “Quality Ratings - Bermuda Grass” value [1, 15] was 6.3 and the “Color Ratings - Bermuda Grass” value [1, 16] was 7.3. The “Quality Ratings - Bermuda Grass” value [1, 16] was 7.4b, the “Color Ratings - Bermuda Grass” value [1, 17] was 9.0a and the “Quality Ratings - Bermuda Grass” value [1, 18] was 8.5a. For the same compound, the “Color Ratings - Bermuda Grass” value [1, 19] was 8.6a, the “Quality Ratings - Bermuda Grass” value [1, 19] was 9.4a and the “Color Ratings - Bermuda Grass” value [1, 20] was 8.9a. The “Quality Ratings - Bermuda Grass” value [1, 20] was 8.6a, the “Color Ratings - Bermuda Grass” value [1, 21] was 6.4 and the “Quality Ratings - Bermuda Grass” value [1, 21] was 6.1. For the same compound, the “Phytotoxicity - Bermuda Grass” value [2, 3] was 0.0b, the “Phytotoxicity - Bermuda Grass” value [2, 22] was 0 and the “Phytotoxicity - Bermuda Grass” value [2, 23] was 0. The “Phytotoxicity - Bermuda Grass” value [2, 24] was 0, the “Phytotoxicity - Bermuda Grass” value [2, 8] was 0 and the “Phytotoxicity - Bermuda Grass” value [2, 25] was 0.0b. For the same compound, the “Phytotoxicity - Bermuda Grass” value [2, 26] was 0, the “Phytotoxicity - Bermuda Grass” value [2, 12] was 0 and the “Phytotoxicity - Bermuda Grass” value [2, 27] was 0. The “Phytotoxicity - Bermuda Grass” value [2, 28] was 0, the “Phytotoxicity - Bermuda Grass” value [2, 29] was 0.5a and the “Phytotoxicity - Bermuda Grass” value [2, 17] was 0. The “Phytotoxicity - Bermuda Grass” value [2, 30] was 0, the “Phytotoxicity - Bermuda Grass” value [2, 31] was 0 and the “Phytotoxicity - Bermuda Grass” value [2, 32] was 0.
